The values that follow come from patent publication US6949648B2, “Condensed pyrazole derivatives, process for producing the same and use thereof” (Takeda Pharmaceutical Company Limited, priority 2000, dated 2005).

Structures can show the parent of a compound that is named as a salt.

Usually melting point stands for the temperature of the solid-liquid transition. `Clc1ccc2nc3c(cnn3-c3ccccn3)c(Cl)c2c1` [Example 2-160, 4,6-Dichloro-1-(2-pyridinyl)-1H-pyrazolo[3,4-b]quinoline] registered a melting point of 175 to 176 °C. The value for `Cc1nn(-c2cccc(Cl)n2)c2nc3ccccc3c(Cl)c12` [Example 2-109, 4-Chloro-1-(6-chloro-2-pyridinyl)-3-methyl-1H-pyrazolo[3,4-b]quinoline] was 191 to 193 °C; that for `Fc1ccc2nc3c(cnn3-c3ccccn3)c(Cl)c2c1` [Example 2-164, 4-Chloro-6-fluoro-1-(2-pyridinyl)-1H-pyrazolo[3,4-b]quinoline] was 176 to 179 °C; that for `Cc1nn(-c2ccccn2)c2ncc(C(=O)N(C)c3ccccc3)c(OCc3ccccc3)c12` [Example 1-17, 4-(Benzyloxy)-N,3-dimethyl-N-phenyl-1-(2-pyridinyl)-1H-pyrazolo[3,4-b]pyridine-5-carboxamide] was 92 to 93 °C. The value for `CSc1ccc2nc3c(c(C)nn3-c3ccccn3)c(Cl)c2c1` [Example 2-49, 4-Chloro-3-methyl-6-(methylsulfanyl)-1-(2-pyridinyl)-1H-pyrazolo[3,4-b]quinoline] was 182 °C; that for `Cc1nn(-c2ccccn2)c2[nH]c3cc(F)c(F)cc3c(=O)c12.O` (hydrate or solvate) [Example 2-92, 6,7-Difluoro-3-methyl-1-(2-pyridinyl)-1,9-dihydro-4H-pyrazolo[3,4-b]quinolin-4-one monohydrate] was 273 to 275 °C; that for `Cc1nn(-c2ccncc2)c2nc3ccccc3c(N(C)C)c12` [Example 2-142, N,N-Dimethyl-N-[3-methyl-1-(4-pyridinyl)-1H-pyrazolo[3,4-b]quinolin-4-yl]amine] was 155 to 156 °C. The figure for `Cc1nn(-c2ccccn2)c2nc3ccccc3c(CC(C)C)c12` [Example 2-105, 4-Isobutyl-3-methyl-1-(2-pyridinyl)-1H-pyrazolo[3,4-b]quinoline] is 87 to 88 °C. The compound `Cc1ccc(-n2nc(C)c3c(N)c4cccc(C)c4nc32)nc1` [Example 2-132, 3,8-Dimethyl-1-(5-methyl-2-pyridinyl)-1H-pyrazolo[3,4-b]quinolin-4-ylamine] gave a melting point of 257 to 260 °C. Regarding `COc1cccc(-n2nc(C)c3c(Cl)c4cccc(C)c4nc32)n1` [Example 2-126, 4-Chloro-3,8-dimethyl-1-(6-methoxy-2-pyridinyl)-1H-pyrazolo[3,4-b]quinoline], the melting point was 148 to 151 °C. The value for `CCCn1c2cc(F)c(F)cc2c(=O)c2c(C)nn(-c3ccccn3)c21` [Example 2-93, 6,7-Difluoro-3-methyl-9-propyl-1-(2-pyridinyl)-1,9-dihydro-4H-pyrazolo[3,4-b]quinolin-4-one] was 198 to 200 °C. `Cc1nn(-c2ccccn2)c2nc(Cc3ccccc3)cc(O)c12` [Example 1-21, 6-Benzyl-3-methyl-1-(2-pyridinyl)-1H-pyrazolo[3,4-b]pyridin-4-ol] gave a melting point of 168 to 169 °C.

Compound `Cc1nn(-c2ccccn2)c2[nH]c3ccc(S(C)(=O)=O)cc3c(=O)c12` [Example 2-52, 3-Methyl-6-(methylsulfonyl)-1-(2-pyridinyl)-1,9-dihydro-4H-pyrazolo[3,4-b]quinolin-4-one] gave a melting point of over 300 °C. In the case of `CC(C)Cc1nn(-c2ccccn2)c2[nH]c3ccccc3c(=O)c12` [Example 2-174, 3-Isobutyl-1-(2-pyridinyl)-1,9-dihydro-4H-pyrazolo[3,4-b]quinolin-4-one], the melting point fell in the range of 167 to 169 °C.

Regarding `Cc1cccnc1-n1nc(C)c2c(=O)c3cccc(C)c3[nH]c21` (as salt: salt) [Example 2-135, 3,8-Dimethyl-1-(3-methyl-2-pyridinyl)-1,9-dihydro-4H-pyrazolo[3,4-b]quinolin-4-one], the melting point lay in the range of 193 to 195 °C.
